Where a name gives a salt, the structure may show the parent alone.

The target of the assay is T1, full length SGK1 (Homo sapiens, UniProt O00141).
T1 construct: 125 μM full length SGK1 (Life Technologies Part #PR7358A); purchased Life Technologies PR7358A
T1 sequence (O00141 1-431): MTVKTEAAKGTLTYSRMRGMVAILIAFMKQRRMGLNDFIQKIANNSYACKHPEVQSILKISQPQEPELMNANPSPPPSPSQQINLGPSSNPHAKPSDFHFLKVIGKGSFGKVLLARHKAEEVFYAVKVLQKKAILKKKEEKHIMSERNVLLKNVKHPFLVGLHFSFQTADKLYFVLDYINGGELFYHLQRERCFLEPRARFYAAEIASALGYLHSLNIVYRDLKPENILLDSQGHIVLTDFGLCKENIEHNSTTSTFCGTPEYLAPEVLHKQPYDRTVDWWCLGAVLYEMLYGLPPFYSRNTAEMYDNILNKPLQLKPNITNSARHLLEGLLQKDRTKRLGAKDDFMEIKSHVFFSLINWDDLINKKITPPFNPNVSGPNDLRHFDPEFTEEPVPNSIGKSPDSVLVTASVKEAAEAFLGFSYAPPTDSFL
Kind of assay: SGK1 inhibition Assay A (Caliper LabChip electrophoretic separation of fluorescent peptide substrate and phosphorylated product). Type of assay: biochemical. The note with it: Assay A; 20 μM ATP, 40 min incubation; read-out: SGK1 IC50.
Broadly, the IC50 is the concentration needed to halve the response being measured. For `COC(=O)N1CC=C(c2cc(N3CCC[C@@H](NC(=O)c4sc5ccccc5c4OC4CNC4)C3)c3c(N)ncnn23)C1` [Example 674, methyl (R)-3-(4-amino-5-(3-(3-(azetidin-3-yloxy)benzo[b]thiophene-2-carboxamido)piperidin-1-yl)pyrrolo[2,1-f][1,2,4]triazin-7-yl)-2,5-dihydro-1H-pyrrole-1-carboxylate], the IC50 is 85 nM. With `CCc1cccc(C(=O)N[C@@H]2CCCN(c3cc(-c4ccc(S(C)(=O)=O)cc4)n4ncnc(N)c34)C2)c1` [Example 79, (R)-N-(1-(4-amino-7-(4-(methylsulfonyl)phenyl)pyrrolo[2,1-f][1,2,4]triazin-5-yl)piperidin-3-yl)-3-ethylbenzamide, TFA] the figure was 26 nM; with `Nc1ncnn2c(-c3ccnc(C(F)F)c3)cc(N3CCC[C@@H](NC(=O)c4ccc(-c5ccnc(C(F)F)c5)s4)C3)c12` [Example 542, (R)-N-(1-(4-amino-7-(2-(difluoromethyl)pyridin-4-yl)pyrrolo[2,1-f][1,2,4]triazin-5-yl)piperidin-3-yl)-5-(2-(difluoromethyl)pyridin-4-yl)thiophene-2-carboxamide], 4 nM; with `Nc1ncnn2c(-c3ccn4nnnc4c3)cc(N3CCC[C@@H](NC(=O)c4ccc(Cl)s4)C3)c12` [Example 253, (R)-N-(1-(4-amino-7-(tetrazolo[1,5-a]pyridin-7-yl)pyrrolo[2,1-f][1,2,4]triazin-5-yl)piperidin-3-yl)-5-chlorothiophene-2-carboxamide], 2 nM. With `CS(=O)(=O)c1ccc(-c2cc(N3CCC[C@H](C(=O)Nc4nccs4)C3)c3c(N)ncnn23)cc1` [Example 103, (S)-1-(4-amino-7-(4-(methylsulfonyl)phenyl)pyrrolo[2,1-f][1,2,4]triazin-5-yl)-N-(thiazol-2-yl)piperidine-3-carboxamide] the figure was 726 nM; with `CC(=O)N1CC=C(c2cc(N3CCC[C@@H](NC(=O)c4cc(C)cc(N5CCN(C)CC5)n4)C3)c3c(N)ncnn23)C1` [Example 732, (R)-N-(1-(7-(1-acetyl-2,5-dihydro-1H-pyrrol-3-yl)-4-aminopyrrolo[2,1-f][1,2,4]triazin-5-yl)piperidin-3-yl)-4-methyl-6-(4-methylpiperazin-1-yl)picolinamide], 25 nM; with `COC(=O)N1CC=C(c2cc(N3CCC[C@@H](NC(=O)c4sc(Cl)cc4OCC4CCNCC4)C3)c3c(N)ncnn23)C1` [Example 571, Methyl (R)-3-(4-amino-5-(3-(5-chloro-3-(piperidin-4-ylmethoxy)thiophene-2-carboxamido)piperidin-1-yl)pyrrolo[2,1-f][1,2,4]triazin-7-yl)-2,5-dihydro-1H-pyrrole-1-carboxylate], 8 nM.

For the compound `CC(=O)N1CC=C(c2cc(N3CCC[C@@H](NC(=O)c4cccc(F)n4)C3)c3c(N)ncnn23)C1` [Example 726, :(R)-N-(1-(7-(1-acetyl-2,5-dihydro-1H-pyrrol-3-yl)-4-aminopyrrolo[2,1-f][1,2,4]triazin-5-yl)piperidin-3-yl)-6-fluoropicolinamide], the IC50 turned out to be 61 nM.

Consider `COc1ccccc1C(=O)N[C@@H]1CCCN(c2cc(-c3ccc(S(C)(=O)=O)cc3)n3ncnc(N)c23)C1` [Example 49, (R)-N-(1-(4-amino-7-(4-(methylsulfonyl)phenyl)pyrrolo[2,1-f][1,2,4]triazin-5-yl)piperidin-3-yl)-2-methoxybenzamide], for which the IC50 was found to be 43 nM. For the compound `Nc1ncnn2c(C3=CCN(C(=O)c4nccs4)C3)cc(N3CCC[C@@H](NC(=O)c4ccc(Cl)s4)C3)c12` [Example 880, (R)—N-(1-(4-amino-7-(1-(thiazole-2-carbonyl)-2,5-dihydro-1H-pyrrol-3-yl)pyrrolo[2,1-f][1,2,4]triazin-5-yl)piperidin-3-yl)-5-chlorothiophene-2-carboxamide], the IC50 is 15 nM.

As for `CC(=O)N1CC=C(c2cc(N3CCC[C@@H](NC(=O)c4cccc(OC5CCN(C)CC5)n4)C3)c3c(N)ncnn23)C1` [Example 709, (R)-N-(1-(7-(1-acetyl-2,5-dihydro-1H-pyrrol-3-yl)-4-aminopyrrolo[2,1-f][1,2,4]triazin-5-yl)piperidin-3-yl)-6-((1-methylpiperidin-4-yl)oxy)picolinamide], the IC50 was 16 nM. Regarding `CCn1ccc(C(=O)N[C@@H]2CCCN(c3cc(C4=CCN(C(C)=O)C4)n4ncnc(N)c34)C2)n1` [Example 742, (R)-N-(1-(7-(1-acetyl-2,5-dihydro-1H-pyrrol-3-yl)-4-aminopyrrolo[2,1-f][1,2,4]triazin-5-yl)piperidin-3-yl)-1-ethyl-1H-pyrazole-3-carboxamide], the IC50 was 135 nM. With `Nc1ncnn2c(-c3ccc(=O)[nH]c3)cc(N3CCC[C@@H](NC(=O)c4ccc(Cl)s4)C3)c12` [Example 536, (R)-N-(1-(4-amino-7-(6-oxo-1,6-dihydropyridin-3-yl)pyrrolo[2,1-f][1,2,4]triazin-5-yl)piperidin-3-yl)-5-chlorothiophene-2-carboxamide] the figure was 7 nM.

For `CC(=O)N1CCC(Oc2cc(C(F)F)sc2C(=O)N[C@@H]2CCCN(c3cc(-c4ccc(=O)n(CC(F)F)c4)n4ncnc(N)c34)C2)CC1` [Example 414, (R)-3-((1-acetylpiperidin-4-yl)oxy)-N-(1-(4-amino-7-(1-(2,2-difluoroethyl)-6-oxo-1,6-dihydropyridin-3-yl)pyrrolo[2,1-f][1,2,4]triazin-5-yl)piperidin-3-yl)-5-(difluoromethyl)thiophene-2-carboxamide], the IC50 came out at 11 nM. As to `CC(=O)c1ccc(-c2cc(N3CCC[C@@H](NC(=O)c4ccc(Cl)s4)C3)c3c(N)ncnn23)cc1` [Example 204, (R)-N-(1-(7-(4-acetylphenyl)-4-aminopyrrolo[2,1-f][1,2,4]triazin-5-yl)piperidin-3-yl)-5-chlorothiophene-2-carboxamide, TFA], the IC50 came out at 5 nM.

`COc1cc(-c2cc(N3CCC[C@@H](NC(=O)c4ccc(Cl)s4)C3)c3c(N)ncnn23)ccc1C#N` [Example 222, (R)-N-(1-(4-amino-7-(4-cyano-3-methoxyphenyl)pyrrolo [2,1-f][1,2,4]triazin-5-yl)piperidin-3-yl)-5-chlorothiophene-2-carboxamide, TFA]: the IC50 was determined as 43 nM. Turning to `Nc1ncnn2c(-c3cn(C4CCNC4)nn3)cc(N3CCC[C@@H](NC(=O)c4ccc(Cl)s4)C3)c12` (stereo partly drawn) [Example 866, N-((3R)-1-(4-amino-7-(1-(pyrrolidin-3-yl)-1H-1,2,3-triazol-4-yl)pyrrolo[2,1-f][1,2,4]triazin-5-yl)piperidin-3-yl)-5-chlorothiophene-2-carboxamide], the IC50 is 517 nM.

As for `CC(=O)N1CC=C(c2cc(N3CCC[C@@H](NC(=O)c4[nH]c5ccccc5c4OCCN(C)C)C3)c3c(N)ncnn23)C1` [Example 364, (R)—N-(1-(7-(1-acetyl-2,5-dihydro-1H-pyrrol-3-yl)-4-aminopyrrolo[2,1-f][1,2,4]triazin-5-yl)piperidin-3-yl)-3-(2-(dimethylamino)ethoxy)-1H-indole-2-carboxamide], the IC50 was found to be 12 nM. With `CC(=O)N1CC=C(c2cc(N3CCC[C@@H](NC(=O)c4cc(-c5ccccc5)n[nH]4)C3)c3c(N)ncnn23)C1` [Example 493, (R)-N-(1-(7-(1-acetyl-2,5-dihydro-1H-pyrrol-3-yl)-4-aminopyrrolo[2,1-f][1,2,4]triazin-5-yl)piperidin-3-yl)-3-phenyl-1H-pyrazole-5-carboxamide] the figure was 6 nM; with `CN(C)CCOc1cc(Cl)sc1C(=O)N[C@@H]1CCCN(c2cc(C3=CCNCC3)n3ncnc(N)c23)C1` [Example 172, (R)—N-(1-(4-amino-7-(1,2,3,6-tetrahydropyridin-4-yl)pyrrolo[2,1-f][1,2,4]triazin-5-yl)piperidin-3-yl)-5-chloro-3-(2-(dimethylamino)ethoxy)thiophene-2-carboxamide, 3 TFA], 350 nM; with `Cc1csc(C(=O)N[C@@H]2CCCN(c3cc(-c4ccc(S(C)(=O)=O)cc4)n4ncnc(N)c34)C2)c1` [Example 97, (R)-N-(1-(4-amino-7-(4-(methylsulfonyl)phenyl)pyrrolo[2,1-f][1,2,4]triazin-5-yl)piperidin-3-yl)-4-methylthiophene-2-carboxamide, TFA], 3 nM.

On to `CC(=O)N1CC=C(c2cc(N3CCC[C@@H](NC(=O)c4sc(Cl)cc4OCCN4CCC(C)(N)CC4)C3)c3c(N)ncnn23)C1` [Example 300, (R)-N-(1-(7-(1-acetyl-2,5-dihydro-1H-pyrrol-3-yl)-4-aminopyrrolo[2,1-f][1,2,4]triazin-5-yl)piperidin-3-yl)-3-(2-(4-amino-4-methylpiperidin-1-yl)ethoxy)-5-chlorothiophene-2-carboxamide], for which the IC50 stood at 1 nM. With `COC(=O)N1CC=C(c2cc(N3CCC[C@@H](NC(=O)c4sc(Cl)cc4OCCN4CCOCC4)C3)c3c(N)ncnn23)C1` [Example 185, methyl (R)-3-(4-amino-5-(3-(5-chloro-3-(2-morpholinoethoxy)thiophene-2-carboxamido)piperidin-1-yl)pyrrolo[2,1-f][1,2,4]triazin-7-yl)-2,5-dihydro-1H-pyrrole-1-carboxylate, 2 TFA] the figure was 43 nM; with `CCc1ccc(C(=O)N[C@@H]2CCCN(c3cc(-c4ccc(S(C)(=O)=O)cc4)n4ncnc(N)c34)C2)s1` [Example 91, (R)-N-(1-(4-amino-7-(4-(methylsulfonyl)phenyl)pyrrolo[2,1-f][1,2,4]triazin-5-yl)piperidin-3-yl)-5-ethylthiophone-2-carboxamide], 10 nM.
